For the experiment, the target named is T1, angiotensin converting enzyme (Oryctolagus cuniculus, UniProt P12822).
T1 sequence (P12822 34-1310): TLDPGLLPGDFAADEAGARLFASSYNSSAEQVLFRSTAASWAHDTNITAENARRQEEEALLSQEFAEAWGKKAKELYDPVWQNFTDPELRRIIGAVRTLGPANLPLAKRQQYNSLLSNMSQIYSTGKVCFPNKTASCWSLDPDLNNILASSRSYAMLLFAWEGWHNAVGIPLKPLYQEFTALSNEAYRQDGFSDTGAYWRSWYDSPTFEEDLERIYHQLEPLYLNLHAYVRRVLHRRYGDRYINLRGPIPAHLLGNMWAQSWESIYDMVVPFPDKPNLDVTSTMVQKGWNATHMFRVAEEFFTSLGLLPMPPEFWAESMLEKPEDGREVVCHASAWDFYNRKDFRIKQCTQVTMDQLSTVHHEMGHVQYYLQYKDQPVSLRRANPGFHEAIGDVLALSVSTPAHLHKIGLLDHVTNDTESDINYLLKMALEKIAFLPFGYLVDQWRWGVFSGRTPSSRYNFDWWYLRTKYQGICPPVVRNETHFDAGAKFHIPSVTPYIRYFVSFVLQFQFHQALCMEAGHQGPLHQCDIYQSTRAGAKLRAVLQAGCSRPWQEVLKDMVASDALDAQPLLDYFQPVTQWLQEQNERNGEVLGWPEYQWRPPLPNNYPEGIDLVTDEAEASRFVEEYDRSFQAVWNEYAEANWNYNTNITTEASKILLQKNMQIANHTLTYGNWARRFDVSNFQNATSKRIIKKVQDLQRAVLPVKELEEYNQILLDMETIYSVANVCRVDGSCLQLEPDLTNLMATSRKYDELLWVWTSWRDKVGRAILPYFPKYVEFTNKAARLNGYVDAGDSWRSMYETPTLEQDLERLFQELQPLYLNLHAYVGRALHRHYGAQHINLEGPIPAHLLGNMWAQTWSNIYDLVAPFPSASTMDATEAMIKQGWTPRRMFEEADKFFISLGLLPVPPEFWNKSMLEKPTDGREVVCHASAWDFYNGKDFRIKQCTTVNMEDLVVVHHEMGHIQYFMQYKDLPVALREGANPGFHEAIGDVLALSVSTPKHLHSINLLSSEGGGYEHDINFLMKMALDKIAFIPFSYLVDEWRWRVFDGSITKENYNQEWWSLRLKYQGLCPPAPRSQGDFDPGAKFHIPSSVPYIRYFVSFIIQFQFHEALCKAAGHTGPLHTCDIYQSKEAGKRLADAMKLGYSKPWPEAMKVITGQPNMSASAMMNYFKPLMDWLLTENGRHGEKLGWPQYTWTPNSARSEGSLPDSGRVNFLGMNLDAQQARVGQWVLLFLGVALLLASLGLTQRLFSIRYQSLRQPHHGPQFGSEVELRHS
As to the kind of experiment: Inhibition of angiotensin converting enzyme in vitro (hippuryl-histidyl-leucine cleavage, Cushman and Cheung method modified by Hayakari et al.). The experiment is classed as biochemical. Particulars: substrate hippuryl-histidyl-leucine 2 mM; potassium phosphate buffer pH 8.3, 300 mM NaCl; 25 minutes at 37° C. The procedure: The activity of the present pyridazopyridazine derivatives in inhibiting angiotensin converting enzyme in vitro can be determined by the following test.
The method used is based on the method of Cushman and Cheung (Biochem. Pharmacol., 20, 1637-1648) incorporating the modifications introduced by Hayakari, et al. (Anal. Biochem., 84, 361-369). The substrate (hippuryl-histidyl-leucine, 2 mM) is incubated with angiotensin converting enzyme in the presence or absence of various concentrations of test substance in potassium phosphate buffer (pH 8.3; 100 mM) containing sodium chloride (300 mM) for 25 minutes at 37° C. (total […] 500 μl). The reaction is terminated by the addition of 3 ml of potassium phosphate buffer (pH 8.3; 200 mM) at 0° C. 2,4,6-Trichloro-s-triazine (3%) in 1.5 ml of dioxane is added and the mixture is agitated until the yellow chromophore has developed fully. The samples are then centrifuged to remove any precipitate which has formed. The yellow chromophore formed by the reaction of the 2,4,6-trichloro-s-triazine with free hippuric acid is measured spectrophotometrically at 382 nm. IC50 values are defined as the concentration of test substance which reduces by 50% the cleavage of hippuryl-histidylleucine by angiotensin converting enzyme under the aforementioned conditions.

In general, IC50 refers to the concentration needed to halve the response being measured. A higher IC50 goes with weaker potency.

Compound `O=C(O)C1CCCN2C(=O)CC(CS)C(=O)N12` (racemic) [racemic 8-(mercaptomethyl)-octahydro-6,9-dioxopyridazo[1,2-a]pyridazine-1-carboxylic acid] displayed an IC50 of 62.5 nM. This lies in the double-digit nanomolar range.

Values taken from patent US4341781A, “Pyridazopyridazine derivatives” (Hoffmann-La Roche Inc., priority 1979, dated 1982).
